Values of other authors as cited in EP0763114B1, “HEPATITIS G VIRUS AND MOLECULAR CLONING THEREOF” (priority 1994, dated 1995).

Tested on: HCV
Conditions: individuals infected with HCV, while ribavirin was administered

NC(=O)c1ncn([C@@H]2O[C@H](CO)[C@@H](O)[C@H]2O)n1 [ribavirin, 1-B-D-ribofuranosyl-1-2,4-triazole, 3-carboxamide]
serum levels of alanine aminotransferase (ALT): significant reductions | viral titer: significant reductions
